# Experiments:
# [1] = target: Phosphatidylinositol 5-phosphate 4-kinase type-2 beta (Homo sapiens) (UniProt P78356); settings: Compound concentration 1000.0 nM
# [2] = target: Serine/threonine-protein kinase Nek4 (Homo sapiens) (UniProt P51957); settings: Compound concentration 1000.0 nM
# [3] = target: Tyrosine-protein kinase Lyn (Homo sapiens) (UniProt P07948); settings: Compound concentration 1000.0 nM
# [4] = tested on: Epidermal growth factor receptor (Homo sapiens), P00533 [UNDEFINED MUTATION]; settings: Compound concentration 1000.0 nM
# [5] = target: Serine/threonine-protein kinase Sgk2 (Homo sapiens) (UniProt Q9HBY8); settings: Compound concentration 1000.0 nM
# [6] = target: Ribosomal protein S6 kinase beta-1 (Homo sapiens) (UniProt P23443); settings: Compound concentration 1000.0 nM
# [7] = target: Delta-type opioid receptor (Homo sapiens, UniProt P41143); settings: Compound concentration 10.0 uM
# [8] = target: Mast/stem cell growth factor receptor Kit (Homo sapiens) (UniProt P10721); settings: Compound concentration 1000.0 nM
# [9] = target: Serine/threonine-protein kinase 3 (Homo sapiens) (UniProt Q13188); settings: Compound concentration 1000.0 nM
# [10] = target: Mitogen-activated protein kinase kinase kinase 5 (Homo sapiens) (UniProt Q99683); settings: Compound concentration 1000.0 nM
# [11] = target: Angiopoietin-1 receptor (Homo sapiens) (UniProt Q02763); settings: Compound concentration 1000.0 nM
# [12] = target: Tyrosine-protein kinase ZAP-70 (Homo sapiens) (UniProt P43403); settings: Compound concentration 1000.0 nM
# [13] = target: Dual specificity protein kinase CLK3 (Homo sapiens) (UniProt P49761); settings: Compound concentration 1000.0 nM
# [14] = target: ALK tyrosine kinase receptor (Homo sapiens) (UniProt Q9UM73); settings: Compound concentration 1000.0 nM
# [15] = target: Serine/threonine-protein kinase pim-3 (Homo sapiens) (UniProt Q86V86); settings: Compound concentration 1000.0 nM
# [16] = target: Serine/threonine-protein kinase WNK1 (Homo sapiens) (UniProt Q9H4A3); settings: Compound concentration 1000.0 nM
# [17] = target: Cyclin-dependent kinase 2 (Homo sapiens) (UniProt P24941); settings: Compound concentration 1000.0 nM
# [18] = target: Serine/threonine-protein kinase 17B (Homo sapiens) (UniProt O94768); settings: Compound concentration 1000.0 nM
# [19] = target: Non-receptor tyrosine-protein kinase TNK1 (Homo sapiens) (UniProt Q13470); settings: Compound concentration 1000.0 nM
# Sequence of Non-receptor tyrosine-protein kinase TNK1 (Homo sapiens) (Q13470 whole entry): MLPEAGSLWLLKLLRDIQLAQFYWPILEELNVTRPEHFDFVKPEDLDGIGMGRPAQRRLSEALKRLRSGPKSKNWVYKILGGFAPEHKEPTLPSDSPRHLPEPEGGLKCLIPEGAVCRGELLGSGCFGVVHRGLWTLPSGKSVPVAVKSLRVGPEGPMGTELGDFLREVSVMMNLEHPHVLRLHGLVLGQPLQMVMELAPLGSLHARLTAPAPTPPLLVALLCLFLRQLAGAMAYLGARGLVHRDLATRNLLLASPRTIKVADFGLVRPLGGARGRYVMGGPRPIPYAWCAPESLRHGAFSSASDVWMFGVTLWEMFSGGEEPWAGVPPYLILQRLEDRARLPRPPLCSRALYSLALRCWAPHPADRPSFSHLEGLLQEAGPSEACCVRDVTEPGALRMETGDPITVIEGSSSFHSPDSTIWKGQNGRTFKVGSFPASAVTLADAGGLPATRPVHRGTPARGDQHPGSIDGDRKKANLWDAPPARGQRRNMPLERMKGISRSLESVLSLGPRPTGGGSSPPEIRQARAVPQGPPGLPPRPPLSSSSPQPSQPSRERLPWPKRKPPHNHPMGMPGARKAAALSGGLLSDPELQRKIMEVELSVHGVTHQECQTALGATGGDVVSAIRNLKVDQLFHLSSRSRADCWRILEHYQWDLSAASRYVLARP
# [20] = target: Protein kinase C delta type (Homo sapiens) (UniProt Q05655); settings: Compound concentration 1000.0 nM
# Sequence of Protein kinase C delta type (Homo sapiens) (Q05655 whole entry, looked up): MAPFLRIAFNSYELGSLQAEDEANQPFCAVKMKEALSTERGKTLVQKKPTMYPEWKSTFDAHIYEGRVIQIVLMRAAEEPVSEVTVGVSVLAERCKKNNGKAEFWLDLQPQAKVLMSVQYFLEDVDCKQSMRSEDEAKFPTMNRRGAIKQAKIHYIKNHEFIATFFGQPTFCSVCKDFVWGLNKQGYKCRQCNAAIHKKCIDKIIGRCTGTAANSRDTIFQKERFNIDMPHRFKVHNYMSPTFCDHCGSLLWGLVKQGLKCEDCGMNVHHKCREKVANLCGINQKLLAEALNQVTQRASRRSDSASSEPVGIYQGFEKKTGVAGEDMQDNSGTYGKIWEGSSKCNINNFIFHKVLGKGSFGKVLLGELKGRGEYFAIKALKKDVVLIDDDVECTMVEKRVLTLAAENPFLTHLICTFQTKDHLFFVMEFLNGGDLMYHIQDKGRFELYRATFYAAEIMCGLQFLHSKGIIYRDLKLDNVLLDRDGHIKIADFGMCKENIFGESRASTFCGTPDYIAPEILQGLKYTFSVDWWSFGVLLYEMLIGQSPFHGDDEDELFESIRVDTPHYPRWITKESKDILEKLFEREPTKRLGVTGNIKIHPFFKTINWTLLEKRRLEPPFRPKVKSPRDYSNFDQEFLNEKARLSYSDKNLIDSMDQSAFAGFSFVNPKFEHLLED
# [21] = tested on: Tyrosine-protein kinase ABL1 (Homo sapiens), P00519 [F317I]; settings: Compound concentration 1000.0 nM
# [22] = target: Ribosomal protein S6 kinase alpha-4 (Homo sapiens) (UniProt O75676); settings: Compound concentration 1000.0 nM
# [23] = target: Ribosomal protein S6 kinase alpha-6 (Homo sapiens) (UniProt Q9UK32); settings: Compound concentration 1000.0 nM
# [24] = tested on: Proto-oncogene tyrosine-protein kinase receptor Ret (Homo sapiens), P07949 [V804M]; settings: Compound concentration 1000.0 nM
# [25] = target: Mitogen-activated protein kinase 14 (Homo sapiens) (UniProt Q16539); settings: Compound concentration 1000.0 nM
# [26] = target: LIM domain kinase 2 (Homo sapiens) (UniProt P53671); settings: Compound concentration 1000.0 nM
# Sequence of LIM domain kinase 2 (Homo sapiens) (P53671 whole entry, looked up, the tested form may be a part): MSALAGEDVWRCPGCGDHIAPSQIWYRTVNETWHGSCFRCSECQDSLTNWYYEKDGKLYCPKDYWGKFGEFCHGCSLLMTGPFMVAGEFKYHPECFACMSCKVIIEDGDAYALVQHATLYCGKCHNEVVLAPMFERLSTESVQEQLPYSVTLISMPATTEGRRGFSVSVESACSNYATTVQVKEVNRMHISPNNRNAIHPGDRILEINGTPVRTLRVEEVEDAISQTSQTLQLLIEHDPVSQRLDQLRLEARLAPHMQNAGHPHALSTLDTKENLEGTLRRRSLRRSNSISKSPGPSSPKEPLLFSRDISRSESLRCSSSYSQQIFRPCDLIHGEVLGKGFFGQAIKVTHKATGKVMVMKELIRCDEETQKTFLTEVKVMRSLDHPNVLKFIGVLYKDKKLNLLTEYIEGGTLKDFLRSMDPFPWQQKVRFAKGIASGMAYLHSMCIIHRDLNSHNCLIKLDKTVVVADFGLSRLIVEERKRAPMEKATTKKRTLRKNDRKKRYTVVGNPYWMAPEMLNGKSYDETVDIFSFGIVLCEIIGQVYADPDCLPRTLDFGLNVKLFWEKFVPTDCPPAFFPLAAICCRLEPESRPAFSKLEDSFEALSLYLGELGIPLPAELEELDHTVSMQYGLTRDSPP
# [27] = target: SRSF protein kinase 1 (Homo sapiens) (UniProt Q96SB4); settings: Compound concentration 1000.0 nM
# [28] = target: GABA-A receptor; anion channel (Rattus norvegicus) (UniProt O09028+P15431+P18506+P18508+P19969+P20236+P23574+P23576+P28471+P28473+P30191+P62813+P63079+P63138+Q91ZM7+Q9ES14); settings: Compound concentration 10.0 uM
# [29] = target: Activin receptor type-1-like (Homo sapiens) (UniProt P37023); settings: Compound concentration 1000.0 nM
# [30] = target: Serine/threonine-protein kinase STK11 (Homo sapiens) (UniProt Q15831); settings: Compound concentration 1000.0 nM
# Sequence of Serine/threonine-protein kinase STK11 (Homo sapiens) (Q15831 whole entry): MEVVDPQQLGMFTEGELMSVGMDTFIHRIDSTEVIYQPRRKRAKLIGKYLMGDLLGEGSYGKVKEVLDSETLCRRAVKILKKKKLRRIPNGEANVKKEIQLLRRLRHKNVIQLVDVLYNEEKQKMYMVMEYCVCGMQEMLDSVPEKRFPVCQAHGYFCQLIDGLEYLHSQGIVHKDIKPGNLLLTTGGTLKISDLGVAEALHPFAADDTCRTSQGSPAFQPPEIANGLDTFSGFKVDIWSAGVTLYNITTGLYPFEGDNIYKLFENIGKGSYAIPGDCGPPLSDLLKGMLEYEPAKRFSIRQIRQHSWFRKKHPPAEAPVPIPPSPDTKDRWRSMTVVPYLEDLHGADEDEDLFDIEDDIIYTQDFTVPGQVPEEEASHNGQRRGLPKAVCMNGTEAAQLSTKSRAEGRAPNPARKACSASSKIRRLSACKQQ
# [31] = target: Serine/threonine-protein kinase pim-1 (Homo sapiens) (UniProt P11309); settings: Compound concentration 1000.0 nM
# Sequence of Serine/threonine-protein kinase pim-1 (Homo sapiens) (P11309 whole entry, looked up): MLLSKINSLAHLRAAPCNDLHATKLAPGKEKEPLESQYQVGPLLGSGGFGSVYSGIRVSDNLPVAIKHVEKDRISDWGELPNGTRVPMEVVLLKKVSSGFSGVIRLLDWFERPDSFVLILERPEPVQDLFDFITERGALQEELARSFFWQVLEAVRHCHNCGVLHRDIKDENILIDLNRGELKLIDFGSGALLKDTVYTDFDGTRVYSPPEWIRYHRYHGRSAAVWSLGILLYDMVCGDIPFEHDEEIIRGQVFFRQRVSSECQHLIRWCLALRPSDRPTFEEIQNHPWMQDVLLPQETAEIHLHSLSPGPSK
# [32] = target: Tyrosine-protein kinase JAK1 (Homo sapiens) (UniProt P23458); settings: Compound concentration 1000.0 nM
# [33] = target: Cyclin-dependent kinase-like 1 (Homo sapiens) (UniProt Q00532); settings: Compound concentration 1000.0 nM
# [34] = tested on: Mast/stem cell growth factor receptor Kit (Homo sapiens), P10721 [V559D,V654A]; settings: Compound concentration 1000.0 nM
# [35] = target: Protein-tyrosine kinase 2-beta (Homo sapiens) (UniProt Q14289); settings: Compound concentration 1000.0 nM
# [36] = target: Serine/threonine-protein kinase BRSK1 (Homo sapiens) (UniProt Q8TDC3); settings: Compound concentration 1000.0 nM
# [37] = target: Bone morphogenetic protein receptor type-1B (Homo sapiens) (UniProt O00238); settings: Compound concentration 1000.0 nM
# [38] = target: Ephrin type-A receptor 4 (Homo sapiens) (UniProt P54764); settings: Compound concentration 1000.0 nM
# Sequence of Ephrin type-A receptor 4 (Homo sapiens) (P54764 whole entry): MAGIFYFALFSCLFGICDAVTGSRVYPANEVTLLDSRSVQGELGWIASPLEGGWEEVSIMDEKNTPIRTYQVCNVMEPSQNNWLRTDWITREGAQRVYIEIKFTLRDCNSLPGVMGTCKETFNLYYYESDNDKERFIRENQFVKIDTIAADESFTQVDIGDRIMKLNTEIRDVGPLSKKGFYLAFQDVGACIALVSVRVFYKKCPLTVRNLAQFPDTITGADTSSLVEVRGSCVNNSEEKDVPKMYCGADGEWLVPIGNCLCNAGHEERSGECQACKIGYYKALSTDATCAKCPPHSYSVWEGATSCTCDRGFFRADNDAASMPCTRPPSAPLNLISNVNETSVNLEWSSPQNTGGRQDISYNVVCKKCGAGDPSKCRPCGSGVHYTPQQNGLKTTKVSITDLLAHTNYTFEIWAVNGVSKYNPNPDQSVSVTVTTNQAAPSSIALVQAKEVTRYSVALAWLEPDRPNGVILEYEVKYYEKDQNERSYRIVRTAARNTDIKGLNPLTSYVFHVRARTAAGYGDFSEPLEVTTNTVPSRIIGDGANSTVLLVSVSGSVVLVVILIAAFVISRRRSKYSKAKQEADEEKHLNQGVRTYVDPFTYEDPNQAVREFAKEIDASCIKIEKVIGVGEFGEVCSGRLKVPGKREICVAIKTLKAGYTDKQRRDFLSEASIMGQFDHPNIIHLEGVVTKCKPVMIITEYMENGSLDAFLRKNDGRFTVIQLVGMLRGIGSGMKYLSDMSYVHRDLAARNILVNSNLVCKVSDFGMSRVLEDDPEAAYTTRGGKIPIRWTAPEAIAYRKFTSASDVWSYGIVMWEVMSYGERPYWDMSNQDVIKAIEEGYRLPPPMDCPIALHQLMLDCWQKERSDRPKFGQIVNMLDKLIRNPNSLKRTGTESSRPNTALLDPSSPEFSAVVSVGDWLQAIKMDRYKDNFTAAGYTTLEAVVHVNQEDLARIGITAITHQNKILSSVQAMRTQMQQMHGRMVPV
# [39] = target: Interleukin-1 receptor-associated kinase 4 (Homo sapiens) (UniProt Q9NWZ3); settings: Compound concentration 1000.0 nM
# [40] = target: G protein-coupled receptor kinase 3 (Homo sapiens) (UniProt P35626); settings: Compound concentration 1000.0 nM
# Sequence of G protein-coupled receptor kinase 3 (Homo sapiens) (P35626 whole entry): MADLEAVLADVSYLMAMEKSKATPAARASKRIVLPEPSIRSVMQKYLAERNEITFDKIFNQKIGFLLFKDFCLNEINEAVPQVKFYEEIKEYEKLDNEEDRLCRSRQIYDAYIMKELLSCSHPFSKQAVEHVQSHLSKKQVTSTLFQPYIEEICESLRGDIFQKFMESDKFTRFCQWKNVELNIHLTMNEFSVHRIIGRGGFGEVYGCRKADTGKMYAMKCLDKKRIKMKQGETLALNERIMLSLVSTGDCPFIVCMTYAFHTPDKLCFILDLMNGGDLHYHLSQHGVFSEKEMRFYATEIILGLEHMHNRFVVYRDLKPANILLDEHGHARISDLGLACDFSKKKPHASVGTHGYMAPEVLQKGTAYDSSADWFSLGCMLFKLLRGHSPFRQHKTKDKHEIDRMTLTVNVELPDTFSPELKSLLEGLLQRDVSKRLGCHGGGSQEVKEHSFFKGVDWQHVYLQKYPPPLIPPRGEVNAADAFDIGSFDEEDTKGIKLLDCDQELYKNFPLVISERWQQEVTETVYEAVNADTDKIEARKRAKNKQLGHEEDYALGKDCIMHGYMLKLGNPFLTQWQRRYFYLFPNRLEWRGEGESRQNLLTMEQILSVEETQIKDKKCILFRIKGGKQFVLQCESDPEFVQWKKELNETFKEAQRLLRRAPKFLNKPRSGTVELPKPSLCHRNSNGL
# [41] = target: 3-phosphoinositide-dependent protein kinase 1 (Homo sapiens) (UniProt O15530); settings: Compound concentration 1000.0 nM
# [42] = tested on: Receptor-type tyrosine-protein kinase FLT3 (Homo sapiens), P36888 [UNDEFINED MUTATION]; settings: Compound concentration 1000.0 nM
# [43] = target: Serine/threonine-protein kinase Nek11 (Homo sapiens) (UniProt Q8NG66); settings: Compound concentration 1000.0 nM
# Sequence of Serine/threonine-protein kinase Nek11 (Homo sapiens) (Q8NG66 whole entry): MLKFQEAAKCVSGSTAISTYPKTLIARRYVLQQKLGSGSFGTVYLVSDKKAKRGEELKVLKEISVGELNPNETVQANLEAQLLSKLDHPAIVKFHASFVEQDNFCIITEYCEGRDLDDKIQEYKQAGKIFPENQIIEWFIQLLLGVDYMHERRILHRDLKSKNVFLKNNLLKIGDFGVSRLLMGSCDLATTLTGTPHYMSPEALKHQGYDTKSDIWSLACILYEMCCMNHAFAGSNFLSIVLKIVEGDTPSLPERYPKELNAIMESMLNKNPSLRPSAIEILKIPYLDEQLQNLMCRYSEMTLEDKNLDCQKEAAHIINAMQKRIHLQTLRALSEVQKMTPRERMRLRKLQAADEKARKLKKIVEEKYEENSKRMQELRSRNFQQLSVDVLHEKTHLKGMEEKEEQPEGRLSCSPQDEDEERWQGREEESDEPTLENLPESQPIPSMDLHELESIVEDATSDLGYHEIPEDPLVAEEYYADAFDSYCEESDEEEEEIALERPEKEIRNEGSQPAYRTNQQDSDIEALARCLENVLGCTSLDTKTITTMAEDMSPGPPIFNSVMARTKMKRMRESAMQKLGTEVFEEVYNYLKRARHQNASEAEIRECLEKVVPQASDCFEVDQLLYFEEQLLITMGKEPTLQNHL
# [44] = target: Ribosomal protein S6 kinase alpha-1 (Homo sapiens) (UniProt Q15418); settings: Compound concentration 1000.0 nM
compound,measurement,setting,value
CC(=O)c1c(NS(C)(=O)=O)c2cc(-c3ccc(Cl)cc3)c(-c3ccc(Cl)cc3Cl)nc2n(C)c1=O [MRL-CB1-NC],residual activity,[1],65%
same,residual activity,[2],100%
same,residual activity,[3],100%
same,residual activity,[4],100%
same,residual activity,[5],92%
same,residual activity,[6],95%
same,inhibition,[7],73.6%
same,residual activity,[8],100%
same,residual activity,[9],100%
same,residual activity,[10],85%
same,residual activity,[11],90%
same,residual activity,[12],100%
same,residual activity,[13],92%
same,residual activity,[14],95%
same,residual activity,[15],100%
same,residual activity,[16],88%
same,residual activity,[17],100%
same,residual activity,[18],100%
same,residual activity,[19],100%
same,residual activity,[20],98%
same,residual activity,[21],85%
same,residual activity,[22],93%
same,residual activity,[23],90%
same,residual activity,[24],100%
same,residual activity,[25],100%
same,residual activity,[26],91%
same,residual activity,[27],100%
same,inhibition,[28],60.9%
same,residual activity,[29],100%
same,residual activity,[30],100%
same,residual activity,[31],90%
same,residual activity,[32],76%
same,residual activity,[33],91%
same,residual activity,[34],89%
same,residual activity,[35],100%
same,residual activity,[36],99%
same,residual activity,[37],100%
same,residual activity,[38],98%
same,residual activity,[39],95%
same,residual activity,[40],100%
same,residual activity,[41],100%
same,residual activity,[42],87%
same,residual activity,[43],79%
same,residual activity,[44],88%
CC(=O)Nc1c(C(C)=O)c(=O)n(C)c2nc(-c3ccc(Cl)cc3Cl)c(-c3ccc(Cl)cc3)cc12 [NAPHTHYRIDINONE],residual activity,[1],91%
same,residual activity,[2],100%
same,residual activity,[3],100%
same,residual activity,[4],100%
same,residual activity,[5],100%
same,residual activity,[6],95%
same,inhibition,[7],-2.35%
same,residual activity,[8],100%
same,residual activity,[9],100%
same,residual activity,[10],100%
same,residual activity,[11],91%
same,residual activity,[12],100%
same,residual activity,[13],100%
same,residual activity,[14],100%
same,residual activity,[15],100%
same,residual activity,[16],100%
same,residual activity,[17],100%
same,residual activity,[18],100%
same,residual activity,[19],100%
same,residual activity,[20],100%
same,residual activity,[21],94%
same,residual activity,[22],100%
same,residual activity,[23],100%
same,residual activity,[24],100%
same,residual activity,[25],100%
same,residual activity,[26],100%
same,residual activity,[27],100%
same,inhibition,[28],30.2%
same,residual activity,[29],100%
same,residual activity,[30],43%
same,residual activity,[31],100%
same,residual activity,[32],100%
same,residual activity,[33],100%
same,residual activity,[34],100%
same,residual activity,[35],100%
same,residual activity,[36],85%
same,residual activity,[37],100%
same,residual activity,[38],96%
same,residual activity,[39],100%
same,residual activity,[40],99%
same,residual activity,[41],100%
same,residual activity,[42],100%
same,residual activity,[43],100%
same,residual activity,[44],100%

# Reference: ChEMBL document CHEMBL4507287, “Data for DCP probe MRL-650” (2021)
